In patent US20210283261A1, “Compositions and Methods for Treating ALK-Mediated Cancer” (ICAHN SCHOOL OF MEDICINE AT MOUNT SINAI, priority 2017, published 2021):

biological target: T1, ALK fusion protein (Homo sapiens, UniProt Q9UM73); experiment: Western blot of ALK fusion protein levels in NCI-H3122 cells; format: cell-based; conditions: NCI-H3122, NCI-H3122 cells, 500 nM, Western blot; read-out: ALK fusion protein degradation, NCI-H3122 (500 nM)
T1 construct: endogenous in cells; host or cells: NCI-H3122; the other entry of the earlier key: EML4 (Q9HC35, Echinoderm microtubule-associated protein-like 4)
Description: SU-DHL-1, NCI-H3122 and NCI-H2228 cells were cultured in RPMI-1640 medium supplemented with 10% fetal bovine serum, 50 μg/mL penicillin and streptomycin. Cells were cultured in a 37° C. incubator with 5% CO2.
Cells were washed with cold PBS once and lysed in 1× Laemmli loading buffer directly. Lysates were heated at 99° C. for […], and resolved on 4-15% precast SDS-PAGE (BIO-RAD) and transferred onto PVDF membrane. Membrane was blocked in 5% milk in Tris-buffered saline and Tween 20 (TBST) for 1 h at room temperature, followed by incubation with a primary antibody overnight at 4° C., and a horseradish peroxidase (HRP)-conjugated secondary antibody for 1 h at room temperature. The membrane was imaged by a ChemiDoc MP imaging system (BIO-RAD). Antibodies against GAPDH (abeam), Phospho-ALK (Tyr1507), ALK (Cell Signaling Technology), Tubulin (Santa Cruz) were purchased commercially. […]

T1 sequence (Q9UM73 with tags, fused parts or gaps): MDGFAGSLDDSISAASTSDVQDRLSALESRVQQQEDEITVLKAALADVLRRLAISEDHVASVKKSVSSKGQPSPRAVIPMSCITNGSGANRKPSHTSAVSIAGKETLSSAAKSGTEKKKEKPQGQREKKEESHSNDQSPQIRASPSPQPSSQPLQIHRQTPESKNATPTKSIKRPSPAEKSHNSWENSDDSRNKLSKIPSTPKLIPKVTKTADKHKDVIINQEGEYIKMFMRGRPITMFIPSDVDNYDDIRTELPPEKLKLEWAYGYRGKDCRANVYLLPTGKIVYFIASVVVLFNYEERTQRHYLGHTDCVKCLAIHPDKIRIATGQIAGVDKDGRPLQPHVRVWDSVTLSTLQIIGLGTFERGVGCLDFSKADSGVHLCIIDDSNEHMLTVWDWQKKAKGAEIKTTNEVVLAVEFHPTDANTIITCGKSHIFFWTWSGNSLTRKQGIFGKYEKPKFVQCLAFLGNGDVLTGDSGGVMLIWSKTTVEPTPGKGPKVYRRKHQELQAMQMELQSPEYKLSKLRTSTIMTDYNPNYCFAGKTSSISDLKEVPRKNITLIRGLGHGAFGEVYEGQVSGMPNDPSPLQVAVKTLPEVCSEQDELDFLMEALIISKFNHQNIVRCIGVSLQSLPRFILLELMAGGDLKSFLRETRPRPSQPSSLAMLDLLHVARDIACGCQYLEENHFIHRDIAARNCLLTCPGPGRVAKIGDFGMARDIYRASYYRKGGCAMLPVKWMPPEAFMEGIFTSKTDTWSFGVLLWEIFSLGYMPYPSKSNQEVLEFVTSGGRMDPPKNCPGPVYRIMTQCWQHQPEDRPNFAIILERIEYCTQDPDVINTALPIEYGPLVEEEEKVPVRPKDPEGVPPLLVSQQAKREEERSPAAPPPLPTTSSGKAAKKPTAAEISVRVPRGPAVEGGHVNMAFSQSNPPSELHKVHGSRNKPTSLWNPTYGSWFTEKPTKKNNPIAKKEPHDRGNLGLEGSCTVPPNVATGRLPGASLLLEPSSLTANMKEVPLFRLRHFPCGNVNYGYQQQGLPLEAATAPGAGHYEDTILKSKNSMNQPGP

Row | Structure (SMILES) | Dmax at 0.5 µM [%]
1 | Cc1cc(Nc2ncc(Cl)c(Nc3ccccc3S(=O)(=O)C(C)C)n2)c(OC(C)C)cc1C1CCN(C(=O)CCOCCOCCNc2cccc3c2C(=O)N(C2CCC(=O)NC2=O)C3=O)CC1 (centres unmarked) [CZ47-09, 4-((2-(2-(3-(4-(4-((5-Chloro-4-((2-(isopropylsulfonyl)phenyl)amino)pyrimidin-2-yl)amino)-5-isopropoxy-2-methylphenyl)piperidin-1-yl)-3-oxopropoxy)ethoxy)ethyl)amino)-2-(2,6-dioxopiperidin-3-yl)isoindoline-1,3-dione] | > 80
2 | Cc1cc(Nc2ncc(Cl)c(Nc3ccccc3S(=O)(=O)C(C)C)n2)c(OC(C)C)cc1C1CCN(C(=O)CCCCCCCCCC(=O)N[C@H](C(=O)N2C[C@H](O)C[C@H]2C(=O)NCc2ccc(-c3scnc3C)cc2)C(C)(C)C)CC1 [CZ47-29, (2S,4R)-1-((S)-2-(ll-(4-(4-((5-Chloro-4-((2-(isopropylsulfonyl)phenyl)amino)pyrimidin-2-yl)amino)-5-isopropoxy-2-methylphenyl)piperidin-1-yl)-11-oxoundecanamido)-3,3-dimethylbutanoyl)-4-hydroxy-N-(4-(4-methylthiazol-5-yl)benzyl)pyrrolidine-2-carboxamide] | < 20
3 | Cc1cc(Nc2ncc(Cl)c(Nc3ccccc3S(=O)(=O)C(C)C)n2)c(OC(C)C)cc1C1CCN(C(=O)CCCCCCNc2cccc3c2C(=O)N(C2CCC(=O)NC2=O)C3=O)CC1 (centres unmarked) [CZ47-06, 4-((7-(4-(4-((5-Chloro-4-((2-(isopropylsulfonyl)phenyl)amino)pyrimidin-2-yl)amino)-5-isopropoxy-2-methylphenyl)piperidin-1-yl)-7-oxoheptyl)amino)-2-(2,6-dioxopiperidin-3-yl)isoindoline-1,3-dione] | < 20
4 | Cc1cc(Nc2ncc(Cl)c(Nc3ccccc3S(=O)(=O)C(C)C)n2)c(OC(C)C)cc1C1CCN(C(=O)CCOCCOCCC(=O)N[C@H](C(=O)N2C[C@H](O)C[C@H]2C(=O)NCc2ccc(-c3scnc3C)cc2)C(C)(C)C)CC1 [CZ47-16, (2S,4R)-1-((S)-2-(3-(2-(3-(4-(4-((5-Chloro-4-((2-(isopropylsulfonyl)phenyl)amino)pyrimidin-2-yl)amino)-5-isopropoxy-2-methylphenyl)piperidin-1-yl)-3-oxopropoxy)ethoxy)propanamido)-3,3-dimethylbutanoyl)-4-hydroxy-N-(4-(4-methylthiazol-5-yl)benzyl)pyrrolidine-2-carboxamide] | < 20
5 | Cc1cc(Nc2ncc(Cl)c(Nc3ccccc3S(=O)(=O)C(C)C)n2)c(OC(C)C)cc1C1CCN(C(=O)CCNc2cccc3c2C(=O)N(C2CCC(=O)NC2=O)C3=O)CC1 (centres unmarked) [CZ47-02, 4-((3-(4-(4-((5-Chloro-4-((2-(isopropylsulfonyl)phenyl)amino)pyrimidin-2-yl)amino)-5-isopropoxy-2-methylphenyl)piperidin-1-yl)-3-oxopropyl)amino)-2-(2,6-dioxopiperidin-3-yl)isoindoline-1,3-dione] | 20 to 80
6 | Cc1cc(Nc2ncc(Cl)c(Nc3ccccc3S(=O)(=O)C(C)C)n2)c(OC(C)C)cc1C1CCN(C(=O)CCOCCOCCOCCOCCOCCC(=O)N[C@H](C(=O)N2C[C@H](O)C[C@H]2C(=O)NCc2ccc(-c3scnc3C)cc2)C(C)(C)C)CC1 [CZ47-21, (2S,4R)-1-((S)-2-(tert-Butyl)-22-(4-(4-((5-chloro-4-((2-(isopropylsulfonyl)phenyl)amino)pyrimidin-2-yl)amino)-5-isopropoxy-2-methylphenyl)piperidin-1-yl)-4,22-dioxo-7,10,13,16,19-pentaoxa-3-azadocosanoyl)-4-hydroxy-N-(4-(4-methylthiazol-5-yl)benzyl)pyrrolidine-2-carboxamide] | < 20
7 | Cc1cc(Nc2ncc(Cl)c(Nc3ccccc3S(=O)(=O)C(C)C)n2)c(OC(C)C)cc1C1CCN(C(=O)CCOCCOCCOCCNc2cccc3c2C(=O)N(C2CCC(=O)NC2=O)C3=O)CC1 (centres unmarked) [CZ47-10, 4-((2-(2-(2-(3-(4-(4-((5-Chloro-4-((2-(isopropylsulfonyl)phenyl)amino)pyrimidin-2-yl)amino)-5-isopropoxy-2-methylphenyl)piperidin-1-yl)-3-oxopropoxy)ethoxy)ethoxy)ethyl)amino)-2-(2,6-dioxopiperidin-3-yl)isoindoline-1,3-dione] | < 20
8 | Cc1cc(Nc2ncc(Cl)c(Nc3ccccc3S(=O)(=O)C(C)C)n2)c(OC(C)C)cc1C1CCN(C(=O)CCOCCOCCOCCOCCNc2cccc3c2C(=O)N(C2CCC(=O)NC2=O)C3=O)CC1 (centres unmarked) [CZ47-11, 4-((15-(4-(4-((5-Chloro-4-((2-(isopropylsulfonyl)phenyl)amino)pyrimidin-2-yl)amino)-5-isopropoxy-2-methylphenyl)piperidin-1-yl)-15-oxo-3,6,9,12-tetraoxapentadecyl)amino)-2-(2,6-dioxopiperidin-3-yl)isoindoline-1,3-dione] | 20 to 80
9 | Cc1cc(Nc2ncc(Cl)c(Nc3ccccc3S(=O)(=O)C(C)C)n2)c(OC(C)C)cc1C1CCN(C(=O)CCCCCCCC(=O)N[C@H](C(=O)N2C[C@H](O)C[C@H]2C(=O)NCc2ccc(-c3scnc3C)cc2)C(C)(C)C)CC1 [CZ47-27, (2S,4R)-1-((S)-2-(9-(4-(4-((5-Chloro-4-((2-(isopropylsulfonyl)phenyl)amino)pyrimidin-2-yl)amino)-5-isopropoxy-2-methylphenyl)piperidin-1-yl)-9-oxononanamido)-3,3-dimethylbutanoyl)-4-hydroxy-7V-(4-(4-methylthiazol-5-yl)benzyl)pyrrolidine-2-carboxamide] | > 80
10 | Cc1cc(Nc2ncc(Cl)c(Nc3ccccc3S(=O)(=O)C(C)C)n2)c(OC(C)C)cc1C1CCN(C(=O)CCCCNc2cccc3c2C(=O)N(C2CCC(=O)NC2=O)C3=O)CC1 (centres unmarked) [CZ47-04, 4-((5-(4-(4-((5-Chloro-4-((2-(isopropylsulfonyl)phenyl)amino)pyrimidin-2-yl)amino)-5-isopropoxy-2-methylphenyl)piperidin-1-yl)-5-oxopentyl)amino)-2-(2,6-dioxopiperidin-3-yl)isoindoline-1,3-dione] | 20 to 80
11 | Cc1cc(Nc2ncc(Cl)c(Nc3ccccc3S(=O)(=O)C(C)C)n2)c(OC(C)C)cc1C1CCN(C(=O)COCCOCCOCCOCCOCC(=O)N[C@H](C(=O)N2C[C@H](O)C[C@H]2C(=O)NCc2ccc(-c3scnc3C)cc2)C(C)(C)C)CC1 [CZ47-20, (2S,4R)-1-((S)-2-(tert-Butyl)-20-(4-(4-((5-chloro-4-((2-(isopropylsulfonyl)phenyl)amino)pyrimidin-2-yl)amino)-5-isopropoxy-2-methylphenyl)piperidin-1-yl)-4,20-dioxo-6,9,12,15,18-pentaoxa-3-azaicosanoyl)-4-hydroxy-N-(4-(4-methylthiazol-5-yl)benzyl)pyrrolidine-2-carboxamide] | < 20
12 | Cc1cc(Nc2ncc(Cl)c(Nc3ccccc3S(=O)(=O)C(C)C)n2)c(OC(C)C)cc1C1CCN(C(=O)COCCOCCOCC(=O)N[C@H](C(=O)N2C[C@H](O)C[C@H]2C(=O)NCc2ccc(-c3scnc3C)cc2)C(C)(C)C)CC1 [CZ47-17, (2S,4R)-1-((S)-2-(tert-Butyl)-14-(4-(4-((5-chloro-4-((2-(isopropylsulfonyl)phenyl)amino)pyrimidin-2-yl)amino)-5-isopropoxy-2-methylphenyl)piperidin-1-yl)-4,14-dioxo-6,9,12-trioxa-3-azatetradecanoyl)-4-hydroxy-N-(4-(4-methylthiazol-5-yl)benzyl)pyrrolidine-2-carboxamide] | < 20
13 | Cc1cc(Nc2ncc(Cl)c(Nc3ccccc3S(=O)(=O)C(C)C)n2)c(OC(C)C)cc1C1CCN(C(=O)CCOCCOCCOCCOCCC(=O)N[C@H](C(=O)N2C[C@H](O)C[C@H]2C(=O)NCc2ccc(-c3scnc3C)cc2)C(C)(C)C)CC1 [CZ47-19, (2S,4R)-1-((S)-2-(tert-Butyl)-19-(4-(4-((5-chloro-4-((2-(isopropylsulfonyl)phenyl)amino)pyrimidin-2-yl)amino)-5-isopropoxy-2-methylphenyl)piperidin-1-yl)-4,19-dioxo-7,10,13,16-tetraoxa-3-azanonadecanoyl)-4-hydroxy-N-(4-(4-methylthiazol-5-yl)benzyl)pyrrolidine-2-carboxamide] | < 20
14 | Cc1cc(Nc2ncc(Cl)c(Nc3ccccc3S(=O)(=O)C(C)C)n2)c(OC(C)C)cc1C1CCN(C(=O)CCOCCOCCOCCC(=O)N[C@H](C(=O)N2C[C@H](O)C[C@H]2C(=O)NCc2ccc(-c3scnc3C)cc2)C(C)(C)C)CC1 [CZ47-18, (2S,4R)-1-((S)-2-(tert-Butyl)-16-(4-(4-((5-chloro-4-((2-(isopropylsulfonyl)phenyl)amino)pyrimidin-2-yl)amino)-5-isopropoxy-2-methylphenyl)piperidin-1-yl)-4,16-dioxo-7,10,13-trioxa-3-azahexadecanoyl)-4-hydroxy-N-(4-(4-methylthiazol-5-yl)benzyl)pyrrolidine-2-carboxamide] | < 20
